Results reported in the supplement of paper PMC10307832.

Experiments:
Test in all cases: relative viability (nuclei count vs DMSO), 5 days (fraction); higher = more cells survive
BMX-IN-1 + Pictilisib = compound: C=CC(=O)Nc1cc(-n2c(=O)ccc3cnc4ccc(-c5ccc(NS(C)(=O)=O)cc5)cc4c32)ccc1C [BMX-IN-1] + CS(=O)(=O)N1CCN(Cc2cc3nc(-c4cccc5[nH]ncc45)nc(N4CCOCC4)c3s2)CC1 [Pictilisib] (partner 1 µM)
Method in brief: (§1)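 A single step with final 0.05% Triton X-100, 1% formaldehyde and 1 ug/ml Hoechst fixed the cells and stained nuclei 5 days after treatment. Lung cancer cell lines in 1536-well plates had been treated by pin tool the day after seeding with one drug alone or a fixed anchor-drug dose plus five library-drug doses (not always all listed) in √10 steps, and nuclei were counted on 4× images. Relative viability is the ratio of nuclei in treated wells to nuclei in vehicle wells, taken as the median of duplicate plates.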

Ibrutinib + Pictilisib = compound: C=CC(=O)N1CCC[C@@H](n2nc(-c3ccc(Oc4ccccc4)cc3)c3c(N)ncnc32)C1 [Ibrutinib] + CS(=O)(=O)N1CCN(Cc2cc3nc(-c4cccc5[nH]ncc45)nc(N4CCOCC4)c3s2)CC1 [Pictilisib] (partner 1 µM)
Method in brief: as §1

BMX-IN-1 + Lapatinib = compound: C=CC(=O)Nc1cc(-n2c(=O)ccc3cnc4ccc(-c5ccc(NS(C)(=O)=O)cc5)cc4c32)ccc1C [BMX-IN-1] + CS(=O)(=O)CCNCc1ccc(-c2ccc3ncnc(Nc4ccc(OCc5cccc(F)c5)c(Cl)c4)c3c2)o1 [Lapatinib] (partner 2 µM)
Method in brief: as §1

BMX-IN-1 + Olaparib = compound: C=CC(=O)Nc1cc(-n2c(=O)ccc3cnc4ccc(-c5ccc(NS(C)(=O)=O)cc5)cc4c32)ccc1C [BMX-IN-1] + O=C(c1cc(Cc2n[nH]c(=O)c3ccccc23)ccc1F)N1CCN(C(=O)C2CC2)CC1 [Olaparib] (partner 8 µM)
Method in brief: as §1

Work on UMC-11 yielded a relative viability (BMX-IN-1 + Pictilisib; first compound 0.02 µM) of 1.07, a relative viability (BMX-IN-1 + Pictilisib; first compound 0.2 µM) of 0.922 and a relative viability (BMX-IN-1 + Pictilisib; first compound 0.6325 µM) of 0.892. For the same cell line, the relative viability (BMX-IN-1 + Pictilisib; first compound 2 µM) was 0.912, the relative viability (Ibrutinib + Pictilisib; first compound 0.005 µM) was 0.31 and the relative viability (Ibrutinib + Pictilisib; first compound 0.01581 µM) was 0.781. It also gave a relative viability (Ibrutinib + Pictilisib; first compound 0.05 µM) of 0.795, a relative viability (Ibrutinib + Pictilisib; first compound 0.1581 µM) of 0.777 and a relative viability (Ibrutinib + Pictilisib; first compound 0.5 µM) of 0.784. For the same cell line, the relative viability (BMX-IN-1 + Lapatinib; first compound 0.02 µM) was 1.1, the relative viability (BMX-IN-1 + Lapatinib; first compound 0.2 µM) was 1.1 and the relative viability (BMX-IN-1 + Lapatinib; first compound 0.6325 µM) was 1.28. For the same cell line, the relative viability (BMX-IN-1 + Lapatinib; first compound 2 µM) was 1.1, the relative viability (BMX-IN-1 + Olaparib; first compound 0.02 µM) was 0.402 and the relative viability (BMX-IN-1 + Olaparib; first compound 0.2 µM) was 0.389. It also gave a relative viability (BMX-IN-1 + Olaparib; first compound 0.6325 µM) of 0.364 and a relative viability (BMX-IN-1 + Olaparib; first compound 2 µM) of 0.364.
